The test system of one experiment is Aβ1-42 (MEF M146V). In words: Aβ1-42 ELISA in MEF dKO cultures cotransfected with APP-CTF and human presenilin-1 M146V allele. The class given is cell-based. The procedure: (§1) H4-APPsw cell cultures were maintained on Dulbecco's modified Eagle's medium (DMEM) supplemented with L-glutamine (2 mM), fetal bovine serum (10%), and G418 (100 μg/mL). […] Aβ1-42 and Aβ1-40 assays, and Notch inhibition assays, were carried out as described previously. Mouse embryonic fibroblasts deficient in PS1 and PS2 (MEF dKO) were passaged twice per week in DMEM/F-12 medium, consisting of a 1 : 1 mixture of DMEM and F-12 nutrient mixture supplemented with 10% fetal bovine serum, penicillin, and streptomycin. For expression of human presenilin-1 in MEF dKO cells, the full length human presenilin-1 cDNA open reading frame was cloned between the BamHI and XhoI sites of the vector pcDNA5/FRT (Invitrogen), placing presenilin-1 expression under the control of the CMV promoter. […]
(§2) IC50 determinations for Aβ1-42 and Aβ1-40 in H4-APPsw cultures in 384-well format were determined using homogeneous time-resolved fluorescence immunoassays as previously described. […] In other experiments using H4-APPsw cultures, Aβ was quantified by ELISA; for Aβ1-42 the combination of monoclonal antibodies was 26D6 and 565-HRP; for Aβ1-40 it was TSD and 26D6-HRP, and for Aβ1-x it was 4G8 and 26D6-HRP. […] For Aβ in transiently transfected PS1/PS2 dKO fibroblasts, Aβ1-42 was quantified using an ELISA kit (WACO), and Aβ1-40 was quantified by ELISA as described above for H4-APPsw cultures. […]

A further experiment deals with Aβ1-40 (MEF PS1wt). In words: Aβ1-40 ELISA in MEF dKO cultures cotransfected with APP-CTF and human presenilin-1 wild type. In kind it is cell-based. Particulars: wild type human presenilin-1. The procedure: as §1, §2

The text below walks through data of publication PMC4109680, “Identification and Preclinical Pharmacology of the γ-Secretase Modulator BMS-869780” (International Journal of Alzheimer's Disease, 2014).

pIC50: −log10 of the molar value.

Regarding `COc1cc(Nc2nc3n(n2)CCCC[C@H]3c2ccc(F)cc2)ccc1-n1cnc(Cl)c1` [BMS-869780], the pIC50 in the experiment with Aβ1-42 (MEF M146V) (Homo sapiens, presenilin-1 M146V allele) was 7.66; in the experiment on Aβ1-40 (MEF PS1wt), 7.96. In addition, in the experiment with Aβ1-42 (MEF M146V) (MEF cultures, higher IC50 (less potent) with M146V), the “Aβ1-42 IC50 in M146V allele relative to wild type presenilin” value was “ca. 3 fold”.
